# Source: publication PMC8961587, “Synthesis and Structure–Activity Relationships of Novel Non-Steroidal CYP17A1 Inhibitors as Potential Prostate Cancer Agents” (Biomolecules, 2022)
# Molecular target: T1, CYP17A1 (Homo sapiens, UniProt P05093)
# T1 sequence (P05093 1-508): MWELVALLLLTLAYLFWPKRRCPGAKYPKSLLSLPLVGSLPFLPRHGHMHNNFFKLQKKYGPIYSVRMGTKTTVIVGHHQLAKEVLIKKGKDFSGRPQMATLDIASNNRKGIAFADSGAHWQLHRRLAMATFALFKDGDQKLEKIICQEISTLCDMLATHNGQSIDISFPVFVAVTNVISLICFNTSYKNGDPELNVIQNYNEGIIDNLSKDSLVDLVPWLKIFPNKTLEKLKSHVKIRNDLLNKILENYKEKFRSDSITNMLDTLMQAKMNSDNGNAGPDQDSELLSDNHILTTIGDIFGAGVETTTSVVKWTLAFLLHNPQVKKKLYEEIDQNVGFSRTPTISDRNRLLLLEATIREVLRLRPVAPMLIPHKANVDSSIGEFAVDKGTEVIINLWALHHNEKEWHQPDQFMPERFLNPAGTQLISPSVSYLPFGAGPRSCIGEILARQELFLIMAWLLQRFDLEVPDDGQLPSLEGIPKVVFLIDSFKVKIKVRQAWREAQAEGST
# Assay: […]α-hydroxylase activity, conversion of […]-progesterone to […]OH-progesterone, TLC; enzyme source not given
# Assay type: cell-based
row,Compound,IC50 [µM]
1,Cc1cc(Nc2cccnc2)ccc1-n1ccc2ccccc21 [compound 20],2.6
2,c1ccc2c(c1)ncn2-c1ccc(NC2CCCCC2)cc1 [compound 2],1.2
